What was measured:
Assay type in all cases: in vivo, rat
[1] = system: carrageenan-induced thermal hyperalgesia; assay: withdrawal latency to noxious thermal stimulation after carrageenan, intrathecal pre-administration of peptide; details: 10^-3M (10 nmol/10 μl) peptide intrathecal; 2% carrageenan 4 hours later; FIG. 9B
Experimental: In Example 6, 10^−3M (10 nmol/10 μl) D-EKC/D (3), (5), or (7), Spantide I, or saline (10 μl) was administered to intrathecally catheterized rats via catheters. Four hours later, 100 μl of 2% carrageenan (2 mg/100 μl) was subcutaneously administered to rat plantar.
Meanwhile, noxious thermal stimulation was applied to paw plantar using infrared rays at 10-minute intervals after carrageenan administration. The time (latency period) required for withdrawal response to take place was measured. The latency period before untreated rats following noxious thermal stimulation was designated as the control latency period.

[2] = system: carrageenan-induced inflammation; assay: carrageenan-induced increase in paw size after subcutaneous pre-administration of peptide to plantar; details: 10^-3M (100 nmol/100 μl) subcutaneous to plantar
Experimental: 100 μl of saline, 10^−3M (100 nmol/100 μl) D-EKC/D (3), or 10^−3M (100 nmol/100 μl) Spantide II (N^6-[(3-pyridinyl)carbonyl]-D-Lys-L-Pro-3-(3-pyridinyl)-L-Ala-L-Pro-3,4-dichloro-D-Phe-L-Asn-D-Trp-L-Phe-D-Trp-L-Leu-L-Nle-NH2) (SEQ ID NO: 21) was subcutaneously administered to rat plantar. Four (4) hours later, 100 μl (2 mg/100 μl) of 2% carrageenan was subcutaneously administered to rat plantar. Paw size was measured every 10 minutes for 60 minutes after carrageenan administration. The paw size (control) before carrageenan administration was designated as the basal level and increases in paw size were then calculated.
Procedures similar to those in Experiment B were performed, except for administration of carrageenan at 8 hours after administration of saline, D-EKC/D (3), or Spantide II.
Procedures similar to those in Experiment B were performed except that the test with Spantide II was not conducted and carrageenan was administered at 14 hours after administration of saline or D-EKC/D (3).

[3] = paw size after subcutaneous administration of peptide alone to plantar; details: 10^-3M D-EKC/D (3) subcutaneous to plantar; for paw plantar size after administration of peptide alone: FIG. 10A
Experimental: 100 μlof saline or 10^−3M (100 nmol/100 D-EKC/D (3) was subcutaneously administered to rat plantar. Paw size was measured with time for 60 minutes after administration. Paw size (control) before administration was designated as the basal level, and increases in paw size were then calculated.

[4] = system: formalin-induced pain behavior; assay: formalin-induced pain behavior (flinching) after intrathecal pre-administration of peptide
Experimental: In Example 5, 10^−3M (10 nmol/10 μl) D-EKC/D (3), (5), or (7), Spantide I, or saline (10 μl) was administered to intrathecally catheterized rats via catheters and then 4 hours later, 50 μl of 2% formalin was administered subcutaneously to hind paws of rats. The number of flinching (pain behavior) was determined for 60 minutes after formalin administration, so that the degree of pain could be evaluated. During the 10-minute period after formalin administration (referred to as phase I), pain behavior was measured once every 2 minutes (1 minute per measurement). During the period from 10 minutes to 60 minutes after formalin administration (referred to as phase II), pain behavior was measured once every 5 minutes (1 minute per measurement), so that the degree of pain could be evaluated. During phase I, behavior (phasic pain) resulting from chemical stimulation accompanying formalin administration was observed. During phase II, tonic pain following the phasic pain was observed.
The horizontal axis indicates time (minutes) after formalin administration and the vertical axis indicates the measured number of pain behavior per minute.

[5] = system: substance P-induced scratching behavior; assay: substance P-induced scratching behavior after intrathecal pre-administration of test peptide
Experimental: In Example 1, 10^−3M (10 nmol/10 μl) EKC/D or D-EKC/D (1), (2) or (3) was administered to intrathecally catheterized rats via catheters. After the predetermined time periods denoted on the horizontal axis in FIG. 1, the numbers of scratching events (scratching behavior) induced by intrathecal administration of 10^−3M (10 nmol/10 μl) substance P (hereafter, referred to as “SP”) were determined. Here, the expression “10^−3M (10 nmol/10 μl) EKC/D or D-EKC/D (1), (2), or (3) was administered” refers to a situation in which 10 μl in total of a solution (that is, 10^−3M solution) containing 10 nmol of EKC/D or D-EKC/D (1), (2), or (3) was all administered. The expression, “ . . . administration of 10^−3M substance P (10 nmol/10 μl)” refers to a situation in which 10 μl in total of a solution (that is, 10^−3M solution) containing 10 nmol of the substance was all administered. The same similarly applies below.
Meanwhile, saline (10 μl) was intrathecally administered to intrathecally catheterized rats via catheters and then, after 30 minutes, 10^−3M SP (10 nmol/10 μl) was intrathecally administered to the rats. The number of the thus induced scratching events was determined to be the number of scratching events in the control group. The control group is denoted with saline-4-SP in FIG. 1.
The vertical axis of the graph in FIG. 1 indicates changes in the numbers of scratching events (represented by relative values) due to administration of 10^−3M EKC/D or D-EKC/D (1), (2), or (3) when the number of scratching events (of untreated rats in a control group) induced by intrathecal administration of 10^−3M substance P was determined to be 100%. Meanwhile, the horizontal axis indicates the intervals between the administration of EKC/D, D-EKC/D (1), (2), or (3) and 10^−3M substance P. […]
The test was conducted with procedures similar to those in Example 1, except for 4 hours of interval between the administration of each test peptide and the administration of substance P. The concentration of each test peptide and that of substance P for administration were determined to be 10^−3M (10 nmol/10 μl), similarly to Example 1. The number of scratching events in the control group was determined with procedures similar to those in Example 1, such that substance P was administered at 30 minutes after administration of saline (10 μl) and then the number was determined.

Ala-Tyr-Gln-Leu-Glu-His-Thr-Phe-Gln-DTrp-Leu-Leu-NH2 (AYQLEHTFQXLL; HELM PEPTIDE1{A.Y.Q.L.E.H.T.F.Q.[dW].L.L.[am]}$$$$V2.0; N-terminus assumed; SMILES CC(C)C[C@H](NC(=O)[C@H](CC(C)C)NC(=O)[C@@H](Cc1c[nH]c2ccccc12)NC(=O)[C@H](CCC(N)=O)NC(=O)[C@H](Cc1ccccc1)NC(=O)[C@@H](NC(=O)[C@H](Cc1c[nH]cn1)NC(=O)[C@H](CCC(=O)O)NC(=O)[C@H](CC(C)C)NC(=O)[C@H](CCC(N)=O)NC(=O)[C@H](Cc1ccc(O)cc1)NC(=O)[C@H](C)N)[C@@H](C)O)C(N)=O) [D-EKC/D (3)]
withdrawal time (latency period) [1]: significant increases | increases in paw size accompanying carrageenan-induced inflammation ([2]; carrageenan 4 hours later, FIG. 10B): suppressed increases in paw size accompanying carrageenan-induced inflammation more significantly than administration of Spantide II | increases in paw size accompanying carrageenan-induced inflammation ([2]; carrageenan 8 hours later, FIG. 10C): suppressed increases in paw size | increases in paw size accompanying carrageenan-induced inflammation ([2]; carrageenan 14 hours later, FIG. 10D): suppressed increases in paw size | inflammation reaction caused by the peptide [3]: no inflammation reaction took place | paw plantar size after administration of peptide alone ([3]; 60 minutes after administration): restored to near the basal (control) level | paw plantar size after administration of peptide alone ([3]; early after administration): tentatively increased | numbers of pain behavior during phase I ([4]; 10^-3M (10 nmol/10 μl) peptide intrathecal, 2% formalin 4 hours later, 0-10 minutes after formalin): significantly decreased | numbers of pain behavior during phase II ([4]; 10^-3M (10 nmol/10 μl) peptide intrathecal, 2% formalin 4 hours later, 10-60 minutes after formalin): significantly decreased | suppressing effects on formalin-induced pain behavior compared with Spantide I ([4]; 10^-3M intrathecal, formalin 4 hours later): sustained longer compared with the effects of Spantide I | number of scratching events induced by substance P, relative to control group (saline+SP = 100%) ([5]; 10^-3M (10 nmol/10 μl) peptide intrathecal, 10^-3M SP 30 minutes after peptide, FIG. 1): about 20% | number of scratching events induced by substance P, relative to control group ([5]; 10^-3M peptide intrathecal, administration interval of 45 minutes, FIG. 1): almost the same effects were exhibited | suppressive effects on substance P-induced scratching behavior ([5]; Example 1, intervals of 4 hours, 8 hours, and 14 hours between peptide and SP, both 10^-3M): significant suppressive effects | scratching behavior induced by substance P ([5]; Example 2, FIG. 2, 10^-3M peptide, SP 4 hours after peptide, control about 380 scratching): almost never induced | suppressive effects on scratching as administration interval is prolonged ([5]; Example 2, FIG. 2, 10^-3M peptide, interval 8 hours and then 14 hours): gradually attenuated | scratching behavior induced by substance P / suppressive effects ([5]; Example 3, FIG. 3, 10^-3M peptide, SP 4 hours after peptide, control 380 scratching): almost never induced

From patent US8853359B2, “Endokinin C/D-derived peptides” (University of Miyazaki, priority 2009, dated 2014)
